Experimental data from patent US9597407B2, “Targeted antimicrobial moieties” (C3 Jian, Inc., priority 2009, dated 2017).
“Also recorded” adds a separate entry of the source.

System: bacteria
Assay: Binding of targeting peptides to microorganisms (Table 3)
Conditions: peptide binding in aqueous buffers varied by peptide solubility; preferably 1x PBS

Row | Substance | Target(s) (microorganism bound by the targeting peptide)
1 | 1T-59 (AVGNNLGKDNDSGHRGKKHRKHKHR; Peptide with targeting and/or antimicrobial activity) [Peptide 1T-59] | S. aureus; also recorded: S. epidermidis; also recorded: P. aeruginosa
2 | 1T-60 (YLTSLGLDAAEQAQGLLTILKG; Peptide with targeting and/or antimicrobial activity) [Peptide 1T-60] | S. aureus; also recorded: S. epidermidis; also recorded: C. jeikeium; also recorded: C. striatum; also recorded: P. aeruginosa
3 | 1T-61 (HATLLPAVREAISRQLLPALVPRG; Peptide with targeting and/or antimicrobial activity) [Peptide 1T-61] | P. aeruginosa
4 | 1T-62 (GCKGCAQRDPCAEPEPYFRLR; Peptide with targeting and/or antimicrobial activity) [Peptide 1T-62] | S. epidermidis; also recorded: P. aeruginosa
5 | 1T-63 (EPLILKELVRNLFLFCYARALR; Peptide with targeting and/or antimicrobial activity) [Peptide 1T-63] | S. aureus; also recorded: S. epidermidis; also recorded: C. jeikeium; also recorded: C. xerosis; also recorded: C. striatum; also recorded: P. aeruginosa
6 | 1T-64 (QTVHHIHMHVLGQRQMHWPPG; Peptide with targeting and/or antimicrobial activity) [Peptide 1T-64] | S. aureus; also recorded: S. epidermidis; also recorded: C. jeikeium; also recorded: C. xerosis; also recorded: C. striatum; also recorded: P. aeruginosa
7 | 1T-65 (HARAAVGVAELPRGAAVEVELIAAVRP; Peptide with targeting and/or antimicrobial activity) [Peptide 1T-65] | S. mutans; also recorded: S. aureus; also recorded: S. epidermidis; also recorded: C. jeikeium; also recorded: C. xerosis; also recorded: C. striatum; also recorded: P. aeruginosa
8 | 1T-66 (DTDCLSRAYAQRIDELDKQYAGIDKPL; Peptide with targeting and/or antimicrobial activity) [Peptide 1T-66] | S. mutans; also recorded: S. aureus; also recorded: S. epidermidis; also recorded: C. jeikeium; also recorded: C. xerosis; also recorded: C. striatum; also recorded: P. aeruginosa
9 | 1T-67 (GQRQRLTCGRVSGCSEGPSREAAR; Peptide with targeting and/or antimicrobial activity) [Peptide 1T-67] | S. aureus; also recorded: S. epidermidis; also recorded: C. jeikeium; also recorded: C. xerosis; also recorded: C. striatum; also recorded: P. aeruginosa
10 | 1T-68 (GGTKEIVYQRG; Peptide with targeting and/or antimicrobial activity) [Peptide 1T-68] | S. mutans; also recorded: S. aureus; also recorded: C. jeikeium; also recorded: C. xerosis; also recorded: C. striatum; also recorded: P. aeruginosa
11 | 1T-69 (ILSQEADRKKLF; Peptide with targeting and/or antimicrobial activity) [Peptide 1T-69] | S. mutans; also recorded: P. aeruginosa
12 | 1T-70 (NRQAQGERAHGEQQG; Peptide with targeting and/or antimicrobial activity) [Peptide 1T-70] | S. aureus; also recorded: C. jeikeium; also recorded: P. aeruginosa
13 | 1T-71 (KIDTNQWPPNKEG; Peptide with targeting and/or antimicrobial activity) [Peptide 1T-71] | P. aeruginosa
14 | 1T-72 (EPTDGVACKER; Peptide with targeting and/or antimicrobial activity) [Peptide 1T-72] | P. aeruginosa
15 | 1T-73 (GWWEELLHETILSKFKITKALELPIQL; Peptide with targeting and/or antimicrobial activity) [Peptide 1T-73] | S. pneumoniae
16 | 1T-74 (DIDWGRKISCAAGVAYGAIDGCATTV; Peptide with targeting and/or antimicrobial activity) [Peptide 1T-74] | S. pneumoniae
17 | 1T-75 (GVARGLQLGIKTRTQWGAATGAA; Peptide with targeting and/or antimicrobial activity) [Peptide 1T-75] | S. pneumoniae
18 | 1T-76 (EMRLSKFFRDFILWRKK; Peptide with targeting and/or antimicrobial activity) [Peptide 1T-76] | S. pneumoniae
19 | 1T-77 (EMRISRIILDFLFLRKK; Peptide with targeting and/or antimicrobial activity) [Peptide 1T-77] | S. pneumoniae
20 | 1T-78 (FFKTIFVLILGALGVAAGLYIEKNYIDK; Peptide with targeting and/or antimicrobial activity) [Peptide 1T-78] | S. pneumoniae

Row | Substance | Target(s) (microorganism bound by the targeting peptide)
21 | 1T-79 (FGTPWSITNFWKKNFNDRPDFDSDRRRY; Peptide with targeting and/or antimicrobial activity) [Peptide 1T-79] | S. pneumoniae
22 | 1T-80 (GGNLGPGFGVIIP; Peptide with targeting and/or antimicrobial activity) [Peptide 1T-80] | S. pneumoniae
23 | 1T-81 (AIATGLDIVDGKFDGYLWA; Peptide with targeting and/or antimicrobial activity) [Peptide 1T-81] | S. pneumoniae
24 | 1T-82 (FGVGVGIALFMAGYAIGKDLRKKFGKSC; Peptide with targeting and/or antimicrobial activity) [Peptide 1T-82] | S. pneumoniae
25 | 1T-83 (QKPRKNETFIGYIQRYDIDGNGYQSLPCPQN; Peptide with targeting and/or antimicrobial activity) [Peptide 1T-83] | S. pneumoniae
26 | 1T-84 (FRKKRYGLSILLWLNAFTNLVNSIHAFYMTLF; Peptide with targeting and/or antimicrobial activity) [Peptide 1T-84] | S. pneumoniae
27 | 1T-86 (HRKNPVLGVGRRHRAHNVA; Peptide with targeting and/or antimicrobial activity) [Peptide 1T-86] | S. mitis; also recorded: S. oralis; also recorded: S. salivarious
28 | 1T-87 (EAVGQDLVDAHHP; Peptide with targeting and/or antimicrobial activity) [Peptide 1T-87] | S. mitis; also recorded: S. mutans; also recorded: S. oralis
29 | 1T-89 (HEDDKRRGMSVEVLGFEVVQHEE; Peptide with targeting and/or antimicrobial activity) [Peptide 1T-89] | S. mitis; also recorded: S. mutans
30 | 1T-90 (RNVIGQVL; Peptide with targeting and/or antimicrobial activity) [Peptide 1T-90] | S. gordonii; also recorded: S. mitis; also recorded: S. mutans; also recorded: S. oralis; also recorded: S. sanguinis
31 | 1T-91 (TSVRPGAAGAAVPAGAAGAAGAGWRWP; Peptide with targeting and/or antimicrobial activity) [Peptide 1T-91] | S. mitis; also recorded: S. mutans; also recorded: S. oralis; also recorded: S. sanguinis
32 | 1T-92 (GQDEGQRRAGVGEGQGVDG; Peptide with targeting and/or antimicrobial activity) [Peptide 1T-92] | S. mitis; also recorded: S. mutans
33 | 1T-93 (AMRSVNQA; Peptide with targeting and/or antimicrobial activity) [Peptide 1T-93] | S. epidermidis; also recorded: S. gordonii; also recorded: S. mitis; also recorded: S. mutans; also recorded: S. oralis; also recorded: S. sanguinis
34 | 1T-94 (DQVAHSGDMLVQARRRDS; Peptide with targeting and/or antimicrobial activity) [Peptide 1T-94] | S. mitis; also recorded: S. mutans; also recorded: S. oralis
35 | 1T-95 (GHLLRVGGRVGGVGGVAGACAQPFGGQ; Peptide with targeting and/or antimicrobial activity) [Peptide 1T-95] | S. gordonii; also recorded: S. mitis; also recorded: S. mutans; also recorded: S. oralis; also recorded: S. sanguinis
36 | 1T-96 (VAGACAQPFGGQ; Peptide with targeting and/or antimicrobial activity) [Peptide 1T-96] | S. gordonii; also recorded: S. mitis; also recorded: S. mutans; also recorded: S. oralis; also recorded: S. sanguinis
37 | 1T-99 (MKAWLGQ; Peptide with targeting and/or antimicrobial activity) [Peptide 1T-99] | S. gordonii; also recorded: S. mitis; also recorded: S. mutans; also recorded: S. oralis; also recorded: S. sanguinis
38 | 1T-100 (LDPLEPRIAPPGDRSHQGAPACHRDPLRGRSARDAER; Peptide with targeting and/or antimicrobial activity) [Peptide 1T-100] | S. gordonii; also recorded: S. mitis; also recorded: S. mutans
39 | 1T-101 (RLRVGRATDLPLTSFAVGVVRNLPDAPAH; Peptide with targeting and/or antimicrobial activity) [Peptide 1T-101] | A. naeslundii; also recorded: P. gingivalis; also recorded: S. epidermidis; also recorded: S. gordonii; also recorded: S. mitis; also recorded: S. mutans; also recorded: S. oralis; also recorded: S. sanguinis
40 | 1T-104 (RAVAAHLQGRHHGHQVRRQRHGQR; Peptide with targeting and/or antimicrobial activity) [Peptide 1T-104] | S. mitis
